The source of these data is PMC7073229, “Novel Quinoline Compounds Active in Cancer Cells through Coupled DNA Methyltransferase Inhibition and Degradation” (Cancers, 2020).

Like-named read-outs stand apart in the source and are kept apart here.

The subject of experiment [1] is HeLa epithelial cervix carcinoma. Description: Antiproliferative activity, MTT. Format: cell-based. As to conditions: Homo sapiens, 48 h treatment, read-out: Antiproliferative Activity (IC50 ± SD) HeLa. How it is done:
(§1) U937 histiocytic lymphoma, HL60 acute promyelocytic leukemia, H1299 lung adenocarcinoma, MCF7 breast carcinoma, HT1080 fibrosarcoma, M14 melanoma, HeLa epithelial cervix carcinoma and peripheral blood B lymphocyte AHH1 human cell lines were obtained from the Deutsche Sammlung für Mikroorganismen and Zellkulturen (DSZM, Braunschweig, Germany) and were maintained in RPMI 1640 medium contained 10% fetal bovine serum (FBS), 2 mM L-glutamine, and antibiotics in a humidified atmosphere with 5% CO2 at 37 °C. HCT116 (ATCC, VA, USA) cells were propagated in Dulbecco’s modified Eagle medium (DMEM) (Euroclone, Milan, Italy) with 10% fetal bovine serum (FBS; Euroclone, Milan, Italy), 2 mM L-glutamine (Euroclone, Milan, Italy), and antibiotics (100 U/mL penicillin, 100 µg/mL streptomycin) (Euroclone, Milan, Italy). The experiments were performed with early (3–20) cell passages. Cell lines were treated with compounds at the indicated concentrations in the exponential growth phase.
(§2) Then, increasing concentrations of different compounds (ranging from 0.01 to 100 μM) were added, and cell proliferation was evaluated by a MTT assay after 48 h. Cells exposed to DMSO were used as control. The effect of compounds was evaluated using the CellTiter-Glo luminescent cell viability assay (Promega, Madison, WI, USA) according to the manufacturer’s instructions. For HCT116, 5 × 10^4 cells/well were plated in 24-well plate and treated, in duplicate, with compounds at several concentrations for 24 and 48 h of induction. After treatments, MTT solution was added for 3 h at 0.5 mg/mL, the obtained crystals were dissolved in DMSO (Sigma-Aldrich, Milan, Italy), and the absorbance was read at a wavelength of 570 nm with reader TECAN M-200. All the experiments were performed in triplicate and repeated at least three times.
(§3) IC50 values of compounds against cellular viability were determined by using nonlinear regression fitting curves with GraphPad Prism 8. The t-test used for statistical analyses was performed with GraphPad Prism 8. All the tests were one-tailed and a p-value < 0.05 was considered statistically significant.

Experiment [2] concerns HCT116 human colorectal carcinoma. Description: Antiproliferative activity, MTT. It is filed as cell-based. To be noted: HCT-116, 48 h treatment, read-out: Antiproliferative Activity (IC50 ± SD) HCT116. How it is done:
as §1, §2, §3

In another experiment the test system is M14 human melanoma. Description: Antiproliferative activity, MTT. Format: cell-based. As to conditions: 48 h treatment, read-out: Antiproliferative Activity (IC50 ± SD) M14. How it is done: as §1, §2, §3
In another experiment the test system is U937 AML cells. Description: Antiproliferative activity, MTT. It is filed as cell-based. As to conditions: Homo sapiens, U-937, 48 h treatment, read-out: Antiproliferative Activity (IC50 ± SD) U937. How it is done: as §1, §2, §3
Experiment [3] has as its system H1299 human non-small cell lung carcinoma. Description: Antiproliferative activity, MTT. As to conditions: 48 h treatment, read-out: Antiproliferative Activity (IC50 ± SD) H1299. Format: cell-based. The procedure:
as §1, §2, §3

The subject of a further experiment is HL60 APL cells. Description: Antiproliferative activity, MTT. It is filed as cell-based. As to conditions: Homo sapiens, HL-60, 48 h treatment, read-out: Antiproliferative Activity (IC50 ± SD) HL60. How it is done: as §1, §2, §3
The test system of experiment [4] is MCF-7 human breast adenocarcinoma. Description: Antiproliferative activity, MTT. It is filed as cell-based. To be noted: MCF7, 48 h treatment, read-out: Antiproliferative Activity (IC50 ± SD) MCF-7. The procedure:
as §1, §2, §3

The test system of experiment [5] is HT1080 human fibrosarcoma. Description: Antiproliferative activity, MTT. It is filed as cell-based. To be noted: HT-1080, 48 h treatment, read-out: Antiproliferative Activity (IC50 ± SD) HT1080. The procedure:
as §1, §2, §3

A further experiment concerns the target T1, DNMT1 protein (Homo sapiens, UniProt P26358).
T1 construct: endogenous in cells; host or cells: HCT116
Description: Western blot of DNMT1 protein level in HCT116 cells. As to conditions: HCT116, 1 µM, 24 h. Format: cell-based. From the text:
Cells were lysed in Laemmli buffer; subsequently the proteins were resolved by sodium dodecyl sulphate-polyacrylamide gel electrophoresis and transferred to a 0.45 µm nitrocellulose membrane (Bio-Rad Laboratories, Hercules, CA, USA). The following primary antibodies were used for immunoblotting: α-DNMT1 (Novus Biologicals, Littleton, CO, USA). α-DNMT3a (SantaCruz Bio-technologies, CA, USA) and α-GAPDH (Millipore Corp., Bedford, MA USA), used as a loading control. The immune complexes were detected with horseradish peroxidase-conjugated species-specific secondary antiserum (Bio-Rad Laboratories, Hercules, CA, USA) then by enhanced chemiluminescence reaction (Bio-Rad Laboratories, Hercules, CA, USA). Densitometric analysis of protein expression was performed by using the Fiji-Image J image processing package.

The subject of experiment [6] is methylated UCHL1 promoter (pUCHL1) in HCT116 cells. Description: UCHL1 promoter demethylation assay (EGFP induction, FACS). It is filed as cell-based, human. As to conditions: five days. How it is done: The assay was performed as described in [29]. Briefly, human colon cancer HCT116 (ATCC, VA, USA) cells were grown in Dulbecco’s Modified Eagle Medium (DMEM; Euroclone, Milan, Italy) supplemented with 10% fetal bovine serum (FBS; Euroclone, Milan, Italy), 2 mM L-glutamine (Euroclone), and antibiotics (100 U/mL penicillin, 100 µg/mL streptomycin) (Euroclone). The pUMLIEP vector (composed by MetLuc-IRES-EGFP construct upon the control of the ubiquitin carboxyl-terminal hydrolase L1 (UCHL1)) was linearized and methylated by with ClaI and SssI-methylase enzymes (New England Biolabs, Milan, Italy). After, methylated pUMLIEP was transfected into HCT116 cells following the protocol described in [30]. […] On day 5, cells were observed under by a fluorescent microscope (Cytation 5 Cell Imaging Multi-Mode Reader (BioTeK Milan, Italy) and BD Accuri flow cytometers. Nuclei were counterstained with DAPI (10 µg/mL, Invitrogen, Tournai, Belgium).

T1 sequence (P26358 whole entry): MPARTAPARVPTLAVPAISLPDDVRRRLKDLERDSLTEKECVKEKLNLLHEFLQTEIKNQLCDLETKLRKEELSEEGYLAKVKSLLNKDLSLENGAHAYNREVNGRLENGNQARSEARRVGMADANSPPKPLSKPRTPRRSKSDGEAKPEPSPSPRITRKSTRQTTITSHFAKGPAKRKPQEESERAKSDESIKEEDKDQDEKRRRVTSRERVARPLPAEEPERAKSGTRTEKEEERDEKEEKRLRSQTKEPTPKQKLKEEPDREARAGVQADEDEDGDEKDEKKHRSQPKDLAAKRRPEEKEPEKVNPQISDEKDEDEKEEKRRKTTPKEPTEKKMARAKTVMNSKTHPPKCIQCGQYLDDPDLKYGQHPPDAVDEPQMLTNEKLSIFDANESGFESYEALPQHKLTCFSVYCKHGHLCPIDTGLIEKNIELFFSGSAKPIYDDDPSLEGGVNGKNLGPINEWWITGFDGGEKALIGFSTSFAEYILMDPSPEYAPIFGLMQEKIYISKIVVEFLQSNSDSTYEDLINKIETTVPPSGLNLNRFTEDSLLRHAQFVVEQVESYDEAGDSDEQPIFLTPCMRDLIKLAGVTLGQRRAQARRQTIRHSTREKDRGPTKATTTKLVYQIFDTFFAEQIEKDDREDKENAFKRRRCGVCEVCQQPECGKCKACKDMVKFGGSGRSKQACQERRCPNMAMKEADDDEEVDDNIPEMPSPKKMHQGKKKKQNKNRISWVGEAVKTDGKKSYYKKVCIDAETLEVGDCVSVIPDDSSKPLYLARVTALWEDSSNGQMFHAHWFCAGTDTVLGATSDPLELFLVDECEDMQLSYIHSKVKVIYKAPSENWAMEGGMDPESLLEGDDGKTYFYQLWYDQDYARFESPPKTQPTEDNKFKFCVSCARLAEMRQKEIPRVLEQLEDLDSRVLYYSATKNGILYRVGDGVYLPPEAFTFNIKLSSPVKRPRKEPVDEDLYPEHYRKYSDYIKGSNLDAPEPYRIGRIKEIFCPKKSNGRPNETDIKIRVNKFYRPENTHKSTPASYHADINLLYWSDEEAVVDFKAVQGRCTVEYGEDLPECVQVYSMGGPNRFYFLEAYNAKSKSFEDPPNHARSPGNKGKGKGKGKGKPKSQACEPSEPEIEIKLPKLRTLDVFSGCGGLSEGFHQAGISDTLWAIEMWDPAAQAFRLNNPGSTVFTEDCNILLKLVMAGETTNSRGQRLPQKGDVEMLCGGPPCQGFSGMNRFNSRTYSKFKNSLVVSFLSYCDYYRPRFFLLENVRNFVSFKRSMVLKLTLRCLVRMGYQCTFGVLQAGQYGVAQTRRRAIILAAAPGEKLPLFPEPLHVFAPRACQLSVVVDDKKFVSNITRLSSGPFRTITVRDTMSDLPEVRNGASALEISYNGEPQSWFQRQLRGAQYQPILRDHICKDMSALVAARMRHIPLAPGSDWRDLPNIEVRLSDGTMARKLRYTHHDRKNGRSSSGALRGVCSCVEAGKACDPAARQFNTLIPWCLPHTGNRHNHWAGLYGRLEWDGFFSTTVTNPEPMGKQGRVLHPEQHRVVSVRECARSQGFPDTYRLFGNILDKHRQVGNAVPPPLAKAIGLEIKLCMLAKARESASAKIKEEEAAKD

For the molecule `O=C(Nc1ccc(Nc2ccnc3ccccc23)cc1)c1cccc(Nc2ccnc3ccccc23)c1` [Compound 2a], the IC50 – broadly, the concentration at which inhibition is half-maximal – in [1] worked out at 140 ± 40 nM; in experiment [2], 1000 ± 200 nM; in the experiment on M14 human melanoma, 500 ± 80 nM; with U937 AML cells it was 700 ± 90 nM; in experiment [3] it was 14700 ± 2300 nM; in [3] (Homo sapiens, NCI-H1299, 48 h), 15000 nM. Moreover, the concentration for half-maximal inhibition (IC50) with HL60 APL cells came out at 200 ± 30 nM; in [4] it was 4100 ± 700 nM; in experiment [5], 500 ± 90 nM.

Consider `O=C(Nc1cccc(Nc2ccnc3ccccc23)c1)c1cccc(Nc2ccnc3ccccc23)c1` [Compound 2b], for which, at DNMT1 protein, the “DNMT1 protein level (western blot)” value is recorded as “decrease”. Besides, the half-inhibitory concentration (IC50) came out at 2000 ± 300 nM in experiment [1]; 1500 ± 300 nM in experiment [2]; 4700 ± 600 nM with M14 human melanoma; 1500 ± 100 nM with U937 AML cells; 5300 ± 900 nM in experiment [3] (Homo sapiens, NCI-H1299, 48 h); 1600 ± 200 nM in the experiment with HL60 APL cells. For the same molecule, the IC50 in [4] stood at 300 ± 60 nM; in experiment [5], 2700 ± 400 nM.

Regarding `O=C(Nc1cccc(Nc2ccnc3ccccc23)c1)c1ccc(Nc2ccnc3ccccc23)cc1` [Compound 2c], the “pUCHL1 demethylation, EGFP-positive cells (FACS R1)” value in [6] (HCT116, 0.1 µM) amounted to 42.3%. Also, the half-inhibitory concentration (IC50) amounted to 4200 ± 800 nM in [1]; 2300 ± 500 nM in experiment [2]; 3800 ± 700 nM with M14 human melanoma; 1500 ± 100 nM with U937 AML cells; 14000 ± 1800 nM in experiment [3] (Homo sapiens, NCI-H1299, 48 h); 1900 ± 300 nM with HL60 APL cells. The values for the IC50 in experiment [4] and in [5] were 2200 ± 400 nM and 2600 ± 600 nM, respectively.

For `O=C(Nc1ccc(NC(=O)c2cccc(Nc3ccnc4ccccc34)c2)cc1)OCc1ccccc1` [Compound 4a], the 50% inhibitory concentration (IC50) worked out at 77000 ± 7900 nM in [1]; 23900 ± 2600 nM in experiment [2]; 69000 ± 8100 nM in the experiment with M14 human melanoma; 500 ± 80 nM in the experiment with U937 AML cells; 45000 ± 4100 nM in experiment [3] (Homo sapiens, NCI-H1299, 48 h); 300 ± 60 nM with HL60 APL cells. Also, the IC50 in experiment [5] turned out to be 19500 ± 2800 nM.

As to `O=C(Nc1cccc(NC(=O)c2ccc(Nc3ccnc4ccccc34)cc2)c1)OCc1ccccc1` [Compound 4c], the “DNMT1 protein level (western blot)” value at DNMT1 protein is on record as “decrease”. The “DNMT1 protein level (western blot) with bortezomib” value on DNMT1 protein (co-treated with bortezomib 10 nM) was “rescued”. Further, the “pUCHL1 demethylation, EGFP-positive cells (FACS R1)” value in experiment [6] (HCT116, 0.5 µM) was 58.7%. In addition, the IC50 in experiment [1] amounted to 7400 ± 1200 nM; in [2] it was 17700 ± 2400 nM; with M14 human melanoma, 4500 ± 800 nM; in the experiment on U937 AML cells, 1200 ± 200 nM; in experiment [3] (Homo sapiens, NCI-H1299, 48 h) it was 6900 ± 900 nM; in the experiment on HL60 APL cells, 300 ± 70 nM. The half-inhibitory concentration (IC50) in [5] stood at 3900 ± 800 nM.
